In one assay the target is T1, CDK9/CycT1 (Homo sapiens, UniProt P50750).
T1 construct: Recombinant full-length His-tagged human CDK9 and CycT1; purchased Life Technologies PV4131; host or cells: insect cells
Briefly: CDK9/CycT1 high ATP kinase assay (TR-FRET, 2 mM ATP). It is filed as biochemical. The following applies: 2 mM ATP (high ATP); median; read-out: CDK9/CyclinT1, 2 mM ATP (high ATP), IC50 (median). An outline of the steps: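 Full-length His-tagged human CDK9/CycT1 (insect cell, ~0.5 μg/mL) preincubated 15 min at 22 °C with compound in Tris pH 8.0, MgCl2, DTT buffer before reaction with biotinylated peptide substrate at high ATP (2 mM).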
On the technique in general: TR-FRET usually uses a lanthanide donor and a delayed reading to cut background.

In another assay the target is T2, CDK2/CycE (Homo sapiens, UniProt P24941).
T2 construct: purchased ProQinase GmbH (Freiburg, Germany); host or cells: insect cells (Sf9)
As to the kind of experiment: CDK2/CycE kinase assay (TR-FRET, 2 mM ATP). Particulars: 2 mM ATP (high ATP); median; read-out: CDK2/CyclinE, 2 mM ATP (high ATP), IC50 (median). Format: biochemical. Summed up: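 GST-tagged human CDK2 and CycE from Sf9 cells, about 10 ng/ml, pre-incubated 15 min at 22 °C with compound in Tris/HCl pH 8.0 buffer. Reaction with 2 mM ATP and 0.75 µM biotinylated peptide for 25 min at 22 °C. Phospho-RB antibody TR-FRET (665/620 nm ratio) read after 1 h; data normalised to no-inhibitor and no-enzyme controls.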

For assay [1], the system named is BRCA1 mRNA expression in MDA-MB-231 cells. As to the kind of experiment: qRT-PCR assay: BRCA1 mRNA expression in MDA-MB-231. Format: cell-based, human. The following applies: Homo sapiens, MDA-MB-231, Inhibition of BRCA1 mRNA expression in MDA-MB-231 cells; median; read-out: RTqPCR-MDA-MB-231, IC50, BRCA1 (median). Summed up:
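Cells were seeded at 200,000 cells/well, left 24 h, then exposed continuously to test substances for 24 h. Total RNA (600 ng) was reverse-transcribed to cDNA and amplified by qPCR, and transcript levels were normalised to GAPDH housekeeping expression.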

T1 sequence (P50750 whole entry): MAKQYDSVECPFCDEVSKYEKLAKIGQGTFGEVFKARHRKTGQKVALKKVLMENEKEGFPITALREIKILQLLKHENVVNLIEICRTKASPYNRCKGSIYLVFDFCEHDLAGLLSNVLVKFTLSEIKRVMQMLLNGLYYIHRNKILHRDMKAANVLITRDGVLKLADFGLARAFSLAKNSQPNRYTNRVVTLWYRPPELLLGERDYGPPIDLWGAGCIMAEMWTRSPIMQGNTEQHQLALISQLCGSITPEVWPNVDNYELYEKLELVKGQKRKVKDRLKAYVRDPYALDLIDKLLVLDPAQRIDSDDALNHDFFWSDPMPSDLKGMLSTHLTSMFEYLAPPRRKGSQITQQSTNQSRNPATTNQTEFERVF
T1 sequence (O60563 whole entry partner): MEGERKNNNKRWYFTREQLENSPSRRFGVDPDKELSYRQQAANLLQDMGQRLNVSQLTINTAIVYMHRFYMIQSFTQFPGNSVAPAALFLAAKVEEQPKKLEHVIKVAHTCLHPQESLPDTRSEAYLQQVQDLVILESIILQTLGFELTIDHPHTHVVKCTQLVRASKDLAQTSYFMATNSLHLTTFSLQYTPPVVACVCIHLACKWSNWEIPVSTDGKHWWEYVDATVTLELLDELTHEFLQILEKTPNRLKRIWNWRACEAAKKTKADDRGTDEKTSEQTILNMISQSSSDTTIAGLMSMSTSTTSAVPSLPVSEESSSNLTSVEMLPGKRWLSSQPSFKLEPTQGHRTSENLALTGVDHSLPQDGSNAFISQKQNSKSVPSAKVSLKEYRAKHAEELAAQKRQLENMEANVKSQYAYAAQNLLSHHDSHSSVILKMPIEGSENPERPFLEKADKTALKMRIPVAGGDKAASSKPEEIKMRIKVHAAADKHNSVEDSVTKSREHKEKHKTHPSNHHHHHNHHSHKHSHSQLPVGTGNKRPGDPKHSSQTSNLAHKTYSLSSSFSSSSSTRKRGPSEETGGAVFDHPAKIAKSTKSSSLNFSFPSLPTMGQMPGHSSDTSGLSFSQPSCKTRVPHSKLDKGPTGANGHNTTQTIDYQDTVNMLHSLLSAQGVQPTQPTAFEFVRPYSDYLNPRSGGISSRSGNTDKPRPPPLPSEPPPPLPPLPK

On to `Clc1ccccc1-c1nnc(CNc2nc(N3CCOCC3)nc3c(Br)cnn23)[nH]1` [Example 69, 8-bromo-N-{[5-(2-chlorophenyl)-4H-1,2,4-triazol-3-yl]methyl}-2-(morpholin-4-yl)pyrazolo[1,5-a][1,3,5]triazin-4-amine], for which the IC50 turned out to be 8.35 µM at CDK9/CycT1 and 12.1 µM on CDK2/CycE.

`CC1(C)CN(c2nc(NCc3nnc(-c4ccccc4)[nH]3)n3ncc(Br)c3n2)CCO1` [Example 68, 8-bromo-2-(2,2-dimethylmorpholin-4-yl)-N-[(5-phenyl-4H-1,2,4-triazol-3-yl)methyl]pyrazolo[1,5-a][1,3,5]triazin-4-amine]: the IC50 on CDK9/CycT1 was found to be 5.34 µM; on CDK2/CycE, 10.6 µM; in assay [1] it was 0.0434 µM.

Turning to `Brc1cnn2c(NCc3nnc(-c4ccccc4)[nH]3)nc(N3CC4(COC4)C3)nc12` [Example 65, 8-bromo-2-(2-oxa-6-azaspiro[3.3]heptan-6-yl)-N-[(5-phenyl-4H-1,2,4-triazol-3-yl)methyl]pyrazolo[1,5-a][1,3,5]triazin-4-amine], the IC50 on CDK9/CycT1 is over 5.71 µM; on CDK2/CycE it was over 20 µM; in assay [1], 0.0144 µM.

As to `COc1cccc(-c2cnc(CNc3nc(N4CCOCC4)nc4c(Br)cnn34)[nH]2)c1` [Example 80, 8-bromo-N-{[5-(3-methoxyphenyl)-1H-imidazol-2-yl]methyl}-2-(morpholin-4-yl)pyrazolo[1,5-a][1,3,5]triazin-4-amine], the IC50 came out at 5.43 µM at CDK9/CycT1, 4.04 µM on CDK2/CycE and 0.0183 µM in assay [1].

As for `CC(C)c1cnn2c(NCc3nc4ccccc4[nH]3)nc(N3CCOC(C)(C)C3)nc12` [Example 12, N-[(1H-benzimidazol-2-yl)methyl]-2-(2,2-dimethylmorpholin-4-yl)-8-(propan-2-yl)pyrazolo[1,5-a][1,3,5]triazin-4-amine], the IC50 at CDK9/CycT1 was over 20 µM; on CDK2/CycE it was over 16.5 µM; in assay [1] it was 0.117 µM.

On to `CC(C)c1cnn2c(NCc3nc4ccccc4[nH]3)nc(N3CCN(C)CC3)nc12` [Example 2, N-[(1H-benzimidazol-2-yl)methyl]-2-(4-methylpiperazin-1-yl)-8-(propan-2-yl)pyrazolo[1,5-a][1,3,5]triazin-4-amine], for which the IC50 is over 20 µM on CDK9/CycT1, 11.1 µM on CDK2/CycE and 0.0208 µM in assay [1].

As for `FC(F)(F)c1ccccc1-c1cnc(CNc2nc(N3CCOCC3)nc3c(Br)cnn23)[nH]1` [Example 88, 8-bromo-2-(morpholin-4-yl)-N-({5-[2-(trifluoromethyl)phenyl]-1H-imidazol-2-yl}methyl)pyrazolo[1,5-a][1,3,5]triazin-4-amine], the IC50 at CDK9/CycT1 turned out to be 6.42 µM; at CDK2/CycE it was 8.55 µM.

Consider `CC(C)c1cnn2c(NCc3nc4ccccc4[nH]3)nc(N(C)C)nc12` [Example 3, N^4-[(1H-benzimidazol-2-yl)methyl]-N^2,N^2-dimethyl-8-(propan-2-yl)pyrazolo[1,5-a][1,3,5]triazine-2,4-diamine], for which the IC50 on CDK9/CycT1 and at CDK2/CycE was over 20 µM each time.

Consider `Brc1cnn2c(NCc3nnc(-c4ccccc4)[nH]3)nc(N3CCCC3)nc12` [Example 64, 8-bromo-N-[(5-phenyl-4H-1,2,4-triazol-3-yl)methyl]-2-(pyrrolidin-1-yl)pyrazolo[1,5-a][1,3,5]triazin-4-amine], for which the figures for the IC50 (at CDK9/CycT1; on CDK2/CycE; in assay [1]) were 3.56 µM, 4.66 µM and 0.0279 µM, respectively.

Take `OC[C@@H]1CCCCN1c1nc(NCc2nnc(-c3ccccc3)[nH]2)n2ncc(Br)c2n1` [Example 70, [(2S)-1-(8-bromo-4-{[(5-phenyl-4H-1,2,4-triazol-3-yl)methyl]amino}pyrazolo[1,5-a][1,3,5]triazin-2-yl)piperidin-2-yl]methanol]: the IC50 is 0.569 µM on CDK9/CycT1, 1.54 µM on CDK2/CycE and 0.0559 µM in assay [1].

On to `CN1CCN(c2nc(NCc3nc4cc(C(F)(F)F)ccc4[nH]3)n3ncc(C4CC4)c3n2)CC1` [Example 313, 8-cyclopropyl-2-(4-methylpiperazin-1-yl)-N-{[5-(trifluoromethyl)-1H-benzimidazol-2-yl]methyl}pyrazolo[1,5-a][1,3,5]triazin-4-amine], for which the IC50 on CDK9/CycT1 is over 20 µM; on CDK2/CycE, over 20 µM; in assay [1], 0.0221 µM.

Take `Fc1cccc(-c2cnc(CNc3nc(N4CCOCC4)nc4c(Br)cnn34)[nH]2)c1` [Example 79, 8-bromo-N-{[5-(3-fluorophenyl)-1H-imidazol-2-yl]methyl}-2-(morpholin-4-yl)pyrazolo[1,5-a][1,3,5]triazin-4-amine]: the IC50 stood at 2.53 µM at CDK9/CycT1 and 2.3 µM at CDK2/CycE.

For the molecule `COC1CCN(c2nc(NCc3nnc(-c4ccccc4)[nH]3)n3ncc(Br)c3n2)CC1` [Example 76, 8-bromo-2-(4-methoxypiperidin-1-yl)-N-[(5-phenyl-4H-1,2,4-triazol-3-yl)methyl]pyrazolo[1,5-a][1,3,5]triazin-4-amine], the IC50 on CDK9/CycT1 is 7.85 µM; at CDK2/CycE it was 8.34 µM.

On to `Brc1cnn2c(NCc3ncc(-c4cccnc4)[nH]3)nc(N3CCOCC3)nc12` [Example 84, 8-bromo-2-(morpholin-4-yl)-N-{[5-(pyridin-3-yl)-1H-imidazol-2-yl]methyl}pyrazolo[1,5-a][1,3,5]triazin-4-amine], for which the IC50 at CDK9/CycT1 stood at 3.44 µM; on CDK2/CycE, 4.84 µM; in assay [1], 0.118 µM.

`FC(F)(F)c1cccc(-c2cnc(CNc3nc(N4CCOCC4)nc4c(Br)cnn34)[nH]2)c1` [Example 83, 8-bromo-2-(morpholin-4-yl)-N-({5-[3-(trifluoromethyl)phenyl]-1H-imidazol-2-yl}methyl)pyrazolo[1,5-a][1,3,5]triazin-4-amine]: the IC50 was 6.79 µM on CDK9/CycT1 and 7.66 µM at CDK2/CycE.

Consider `Clc1cccc(-c2cnc(CNc3nc(N4CCOCC4)nc4c(Br)cnn34)[nH]2)c1` [Example 81, 8-bromo-N-{[5-(3-chlorophenyl)-1H-imidazol-2-yl]methyl}-2-(morpholin-4-yl)pyrazolo[1,5-a][1,3,5]triazin-4-amine], for which the IC50 stood at 5.39 µM at CDK9/CycT1 and 4.03 µM on CDK2/CycE.

Take `Fc1ccccc1-c1nnc(CNc2nc(N3CCOCC3)nc3c(Br)cnn23)[nH]1` [Example 75, 8-bromo-N-{[5-(2-fluorophenyl)-4H-1,2,4-triazol-3-yl]methyl}-2-(morpholin-4-yl)pyrazolo[1,5-a][1,3,5]triazin-4-amine]: the IC50 is over 6.15 µM at CDK9/CycT1 and 2.5 µM at CDK2/CycE.

Regarding `COC(=O)C1CCN(c2nc(NCc3nnc(-c4ccccc4)[nH]3)n3ncc(Br)c3n2)CC1` [Example 77, methyl 1-(8-bromo-4-{[(5-phenyl-4H-1,2,4-triazol-3-yl)methyl]amino}pyrazolo[1,5-a][1,3,5]triazin-2-yl)piperidine-4-carboxylate], the IC50 at CDK9/CycT1 was found to be 12.9 µM; on CDK2/CycE, 11.1 µM.

On to `c1ccc(-c2nnc(CNc3nc(N4CCOCC4)nc4c(C5CC5)cnn34)[nH]2)cc1` [Example 93, 8-cyclopropyl-2-(morpholin-4-yl)-N-[(5-phenyl-4H-1,2,4-triazol-3-yl)methyl]pyrazolo[1,5-a][1,3,5]triazin-4-amine], for which the IC50 on CDK9/CycT1 is 8.59 µM; on CDK2/CycE, 10.5 µM.

`FC(F)(F)Oc1ccccc1-c1cnc(CNc2nc(N3CCOCC3)nc3c(Br)cnn23)[nH]1` [Example 89, 8-bromo-2-(morpholin-4-yl)-N-({5-[2-(trifluoromethoxy)phenyl]-1H-imidazol-2-yl}methyl)pyrazolo[1,5-a][1,3,5]triazin-4-amine]: the IC50 at CDK9/CycT1 was over 20 µM; at CDK2/CycE, 9.87 µM.

With `FC(F)(F)Oc1ccccc1-c1nnc(CNc2nc(N3CCOCC3)nc3c(Br)cnn23)[nH]1` [Example 74, 8-bromo-2-(morpholin-4-yl)-N-({5-[2-(trifluoromethoxy)phenyl]-4H-1,2,4-triazol-3-yl}methyl)pyrazolo[1,5-a][1,3,5]triazin-4-amine], the values for the IC50 on CDK9/CycT1 and at CDK2/CycE were over 20 µM and 18.2 µM, respectively.

In the case of `FC(F)(F)Oc1cccc(-c2cnc(CNc3nc(N4CCOCC4)nc4c(Br)cnn34)[nH]2)c1` [Example 82, 8-bromo-2-(morpholin-4-yl)-N-({5-[3-(trifluoromethoxy)phenyl]-1H-imidazol-2-yl}methyl)pyrazolo[1,5-a][1,3,5]triazin-4-amine], the IC50 on CDK9/CycT1 came out at 12.6 µM; at CDK2/CycE it was 11.6 µM.

Regarding `O[C@@H]1CCN(c2nc(NCc3nc4ccccc4[nH]3)n3ncc(Br)c3n2)C1` [Example 202, (3R)-1-(4-{[(1H-benzimidazol-2-yl)methyl]amino}-8-bromopyrazolo[1,5-a][1,3,5]triazin-2-yl)pyrrolidin-3-ol], the IC50 was over 20 µM on CDK9/CycT1 and 10.5 µM on CDK2/CycE.

With `C[C@@H]1CN(c2nc(NCc3nnc(-c4ccccc4)[nH]3)n3ncc(Br)c3n2)C[C@H](C)O1` [Example 78, 8-bromo-2-[(2R,6S)-2,6-dimethylmorpholin-4-yl]-N-[(5-phenyl-4H-1,2,4-triazol-3-yl)methyl]pyrazolo[1,5-a][1,3,5]triazin-4-amine], the IC50 on CDK9/CycT1 came out at 0.768 µM; on CDK2/CycE, 4.28 µM.

The values above are taken from patent US20230117034A1, “PYRAZOLOTRIAZINES” (Bayer Aktiengesellschaft, priority 2019, published 2023).
